Source: patent US4540709A, “Method for treatment of diseases mediated by PAF using 5-allyl-2-(3,4-Dimethoxyphenyl)-3a,α-methoxy-3-methyl-2,3,3a,6-tet rahydro-6-oxobenzofuran” (Merck & Co., Inc., priority 1983, dated 1985)

Legend:
[1] = target: T1, PAF specific receptor binding site on rabbit platelet plasma membranes (Oryctolagus cuniculus, UniProt G1TEI7); test: Inhibition of 3H-PAF binding to rabbit platelet plasma membrane; details: in vitro, 0° C., pH 7.5
T1 construct: from tissue; host or cells: rabbit platelet plasma membranes
T1 sequence (G1TEI7 1-342): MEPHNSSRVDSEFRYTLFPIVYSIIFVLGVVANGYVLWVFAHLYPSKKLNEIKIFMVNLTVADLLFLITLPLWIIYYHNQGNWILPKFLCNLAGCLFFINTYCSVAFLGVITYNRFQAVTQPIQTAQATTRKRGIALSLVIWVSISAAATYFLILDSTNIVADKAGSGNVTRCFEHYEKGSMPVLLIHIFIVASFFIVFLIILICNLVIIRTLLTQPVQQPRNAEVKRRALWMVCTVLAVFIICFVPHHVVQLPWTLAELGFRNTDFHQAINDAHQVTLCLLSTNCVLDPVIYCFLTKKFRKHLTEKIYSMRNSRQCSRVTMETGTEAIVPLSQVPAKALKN
Description: In vitro, compound (I) inhibits PAF-induced functions in both the cellular and the tissue levels by disturbing the PAF binding to its specific receptor site. The ability of compound (I) to inhibit the PAF binding to its specific receptor binding site on rabbit platelet plasma membranes was measured by an assay recently developed by us.
The inhibition of H^3 -PAF binding to the rabbit platelet plasma membrane by compound (I) was determined by a method employing isotopic labeling and filtration techniques. Generally, a series of Tris-buffered solutions of the selected antagonist at predetermined concentrations were prepared. […] Ten […] of scintillation solution (Aquasol 2, New England Nuclear, Connecticut) was added with stirring to each filter containing the washed residue, and the radioactivity of each resulting suspension was counted in a Packard Tri-Carb 460CD Liquid Scintillation System. Defining the counts from a test sample as "Total binding with antagonist"; the counts from the control sample C1, as "Total binding C1 "; and the counts from the control sample C2 as "non-specific binding C2 ", the percent inhibition of each test antagonist can be determined by the following equation: [formula]

[2] = test system: rabbit platelets; test: PAF-induced platelet aggregation (rabbit platelets); format: cell-based; details: in vitro
[3] = test system: human platelets; test: PAF-induced platelet aggregation (human platelets); format: cell-based; details: in vitro
[4] = test system: guinea pig peritoneal PMN (polymorphonuclear leukocytes); test: PAF-induced guinea pig peritoneal PMN aggregation; format: cell-based; details: in vitro
[5] = test system: human PMN; test: PAF-induced human PMN secretion; format: cell-based; details: in vitro
[6] = test system: guinea pig smooth muscle; test: PAF-induced guinea pig smooth muscle contraction; details: in vitro
[7] = test system: H1; test: Binding of H1 antagonist (3H-pyrilamine) to guinea pig brain membrane
[8] = test system: guinea pig ileum; test: Histamine-induced ileum contraction in guinea pigs
[9] = test system: PAF-induced cutaneous vascular permeability; test: Inhibition of PAF-induced increase of cutaneous vasopermeability, oral activity (Evans Blue); format: in vivo; details: guinea pig
Description: The specific PAF-antagonistic activities are further established by an in vivo assay (modified procedure of Humphrey et al., Lab. Investigation 46, 422 (1982)) following the protocol described below:
Protocol for the evaluation of the oral activity of PAF antagonists or the inhibition of PAF-induced increase of vasopermeability by PAF-antagonists
I. Animal species: 5 guinea pigs (400-500 g)
0.5% (w/v) aqueous methylcellulose solution sodium nembutol
2% Evans Blue solution: 2 g of Evans Blue in 100 ml of pH 7.5 Tris-buffer solution
Tris-Buffer solution: 150 mM NaCl and 10 mM Tris in […] of water with pH adjusted to 7.5.
1. Weigh the guinea pigs. Label them as control, T1, T2, T3 and T4.
2. Fast the animals overnight.
3. Weigh the animals again after the fasting.
4. Ground and suspend a PAF antagonist such as compound (I) with intensive sonication in 3 ml of 0.5% aqueous methylcellulose solution.
5. Administer orally to each of the animals T1, T2, T3 and T4 an appropriate amount (in terms of mg/kg of bodyweight) of the antagonist solution from 4.), except the control animal which should receive only the 0.5% aq. methylcellulose solution.
6. Forty minutes after the oral administration, anesthetize the animals with sodium nembutol (0.75 ml/kg i.p.).
7. After 20 minutes or when tne anesthetics became effective, inject intracardially to each animal 2 ml/kg body weight of the 2% Evans Blue solution.
8. Wait for 10 minutes. In the meantime, shave the backs of the guniea pigs and get ready for the PAF injection. Select two rows of 5 (a total of ten) sites on the back of each animal and designate them as sites […]
______________________________________
and inject intracutaneously, in duplicate 0.1 ml of a PAF solution in Tris-buffer or 0.1 ml of the Tris-buffer itself (control) according to the following schedule: […]
Sites Solution to be injected […]
15. Measure the absorbance of each supernatant from Step (14) ("skin sample") as well as the plasma extract from Step (13) ("plasma sample") at 620 nm with a Cary 210 spectrophotometer (Varian, Palo Alto, Calif.). […]

Structure (SMILES): C=CCC1=CC2(OC)C(=CC1=O)OC(c1ccc(OC)c(OC)c1)C2C (stereo not drawn) [Compound (I), 5-allyl-2-(3,4-dimethoxyphenyl)-3a,α-methoxy-3-methyl-2,3,3a,6-tetrahydro-6-oxobenzofuran]
- IC50 [1]: 174 nM
- inhibition of PAF-induced platelet aggregation [2]: inhibits
- inhibition of PAF-induced platelet aggregation [3]: inhibits
- inhibition of PAF-induced peritoneal PMN aggregation [4]: inhibits
- inhibition of PAF-induced PMN secretion [5]: inhibits
- inhibition of PAF-induced smooth muscle contraction [6]: inhibits
- inhibition of binding of H1 antagonist (3H-pyrilamine) [7]: do not inhibit
- inhibition of histamine-induced ileum contraction [8]: no or only minute inhibition
- % inhibition ([9]; 25 mg/kg P.O.): 43%
- % inhibition ([9]; 50 mg/kg P.O.): 63%
- ED50 ([9]; Cavia porcellus, po, P.O.): 30 mg/kg
